Literature values in US11259516B2, “Method and apparatus for capsular delivery to plants” (priority 2017, dated 2022).

How the values were obtained:
Set-up in all cases: key: X indicates that the given herbicide is suitable for controlling the given weed
Settings in all cases: cited from earlier work
[1] = system: Eucalyptus spp (Box, Eucalypt)
[2] = system: Cryptostegia grandiflora (Rubber vine)
[3] = system: Rubus anglocandicans (Blackberry)
[4] = system: Caesalpinia decapetala (Thorny poinciana)
[5] = system: Ailanthus altissima (Tree-of-heaven)
[6] = system: Senna pendula (Winter senna)
[7] = system: Harungana madagarcariensis (Harungana)
[8] = system: Ligustrum sinense (Chinese privet)
[9] = system: Chamaecytisus palmensis (Tree lucerne)
[10] = system: Bursaria spinosa (Australian blackthorn)
Angophora spp (Apple) = system: Angophora spp (Apple)
Acacia spp (Wattles) = system: Acacia spp (Wattles)
[11] = system: Ligustrum lucidum (Broad leaf privet)
Lantana camara (Lantana) = system: Lantana camara (Lantana)
[12] = system: Jatropha gossypiifolia (Bellyache bush)
Mimosa pigra (Mimosa) = system: Mimosa pigra (Mimosa)
[13] = system: Solanum mauritianum (Wild tobacco tree)
[14] = system: Lycium ferocissium (African boxthom)
[15] = system: Azadirachta indica (Neem)
Salix species (Willows) = system: Salix species (Willows)
[16] = system: Ziziphus mauritania (Chinee apple)
[17] = system: Schinus terebinthifolius (Broad-leafed pepper tree)
[18] = system: Leucaena leucocephala (Leucaena)
[19] = system: Senegalia catechu (Cutch tree)
[20] = system: Leptospermum spp. (Tea trees)
[21] = system: Vachellia nilotica (Prickly acacia)
[22] = system: Tamarix aphylla (Athel pine)
Phoenix spp (Palms) = system: Phoenix spp (Palms)
[23] = system: Cascabela thevetia (Yellow oleander)

Measured: suitability of herbicide for control of weed

COC(=O)c1ccccc1S(=O)(=O)NC(=O)Nc1nc(C)nc(OC)n1 [Metsulfuron-methyl]
not listed: [13] | [14] | [15] | Salix species (Willows) | [16] | [17] | [18] | [19] | [20] | [21] | [22] | Phoenix spp (Palms) | [23]
X: all other assays above

Nc1c(Cl)c(Cl)nc(C(=O)O)c1Cl [Picloram]
X: [3] | [13] | [14] | [15] | Salix species (Willows) | [16] | [17] | [9] | [18] | Acacia spp (Wattles) | [11] | [19] | Lantana camara (Lantana) | [20]

CN(C)C(=O)Nc1ccc(Cl)c(Cl)c1 [Diuron]
X: [21]

CC(C)C1(C)N=C(c2ncccc2C(=O)O)NC1=O (centres unmarked) [Imazapyr]
X: [2] | [22] | [5] | Phoenix spp (Palms) | [7] | [17] | [23]
